From patent US7939509B2, “Partial and full agonists of A1 adenosine receptors” (Gilead Sciences, Inc., priority 2002, dated 2011)
“Also recorded” adds a separate entry of the source.

Key:
Format in all cases: in vivo, rat
[1] = test system: rats fed high fat diet; assay: Oral glucose tolerance test after a single dose in high fat diet rats; conditions: 1 mg/kg oral gavage 15 min before 2 gm/kg glucose load, HF rats
Experimental: Data is presented as mean±SEM from number of animals indicated in the parenthesis for each group. […] All experimental procedures were performed under a protocol approved by the IACUC (CV Therapeutics, Inc.) and in accordance with the recommendations set forth in the Guide for the Care and Use of Laboratory Animals published by the National Research Council. Male Sprague-Dawley rats (225-250 gm) with either one or two indwelling catheters (carotid and jugular) were obtained from Charles River Laboratories (Wilmington, Mass.). Animals were housed 1 per cage in a room maintained on a 12 h light/dark cycle (light on 06.00-18.00 h) under constant temperature (22-25° C.) and with ad libitum access to food and water. Rats on normal diet (Chow) were fed standard laboratory chow (12% fat, 60% carbohydrate, and 28% protein) throughout the study, while animals in the high fat (HF) diet group were given a diet (TD88137 from Harlan Teklad, Madison, Wis.) containing 42% fat, 43% carbohydrate, and 15% protein. […] On the day of the experiment, animals were put in metabolic cages and left undisturbed to acclimate to the environment for 1-2 hrs. An infusion set (21 G×¾″, 0.8×19 mm U.T.W., 3½″, 9 cm tubing, volume 0.15 ml) was connected to the arterial catheter for blood sampling. A 1% sodium citrate saline solution was used to flush the lines. A pre-treatment blood sample was obtained from each animal to determine baseline values for glucose, insulin, FFA and TG. Blood samples were collected into plasma and serum separator tubes (Becton Dickinson, Franklin Lakes, N.J.) at pre-determined time points. Oral glucose tolerance test (OGTT) was performed by giving 2 gm/kg of glucose load. Compound A was given via an oral gavage 15 minutes prior to the glucose load. […] Statistical analysis of data from experiments with 2 treatment groups was performed using the unpaired Student's t-test. One way analysis of variance (ANOVA) followed by Newman-Keuls posthoc analysis was used for multiple comparisons. Data form OGTT was analyzed by calculating area under the curve (AUC) using prism graphpad software. […]

[2] = test system: Sprague-Dawley rats; assay: Acute effect on insulin, FFA and TG in rats fed chow or high fat diet for 2 weeks; conditions: 1 mg/kg oral gavage, 4 hr fast
Experimental: FIG. 8 graphically illustrates the time-course of the effect of Compound A on serum (A) insulin, (B) free fatty acids (FFA), and (C) triglycerides (TG) in rats fed normal diet (ND) and high fat diet (HFD) for 2 weeks as discussed in Example 32. Animals were fasted for four hours before the experiment. Compound A was administered via oral gavage at a dose of 1 mg/kg. Values represent mean±SEM from number of animals indicated in the parenthesis for each group.
All experimental procedures were performed under a protocol approved by the IACUC (CV Therapeutics, Inc.) and in accordance with the recommendations set forth in the Guide for the Care and Use of Laboratory Animals published by the National Research Council. Male Sprague-Dawley rats (225-250 gm) with either one or two indwelling catheters (carotid and jugular) were obtained from Charles River Laboratories (Wilmington, Mass.). Animals were housed 1 per cage in a room maintained on a 12 h light/dark cycle (light on 06.00-18.00 h) under constant temperature (22-25° C.) and with ad libitum access to food and water. Rats on normal diet (Chow) were fed standard laboratory chow (12% fat, 60% carbohydrate, and 28% protein) throughout the study, while animals in the high fat (HF) diet group were given a diet (TD88137 from Harlan Teklad, Madison, Wis.) containing 42% fat, 43% carbohydrate, and 15% protein.
The anti-lipolytic effects of Compound A (see chemical name below) were studied in awake rats. On the day of the experiment, animals were put in metabolic cages and left undisturbed to acclimate to the environment for 1-2 hrs. An infusion set (21 G×¾″, 0.8×19 mm U.T.W., 3½″, 9 cm tubing, volume 0.15 ml) was connected to the arterial catheter for blood sampling. A 1% sodium citrate saline solution was used to flush the lines. A pre-treatment blood sample was obtained from each animal to determine baseline values for glucose, insulin, FFA and TG. Blood samples were collected into plasma and serum separator tubes (Becton Dickinson, Franklin Lakes, N.J.) at pre-determined time points. Oral glucose tolerance test (OGTT) was performed by giving 2 gm/kg of glucose load. Compound A was given via an oral gavage 15 minutes prior to the glucose load. For chronic experiments Compound A was administered twice a day via subcutaneous injection at a dose of 5 mg/kg for 2 weeks. An OGTT was performed at the end of two weeks at ˜2 hrs after the last dose of Compound A.
Compound A (2-{6-[((1R,2R)-2-hydroxycyclopentyl)amino]purin-9-yl}(4S,5S,2R,3R)-5-[(2-fluorophenylthio)methyl]oxolane-3,4-diol) was synthesized by the Department of Medicinal and Bio-Organic chemistry of CV Therapeutics, Inc. Sodium citrate was purchased from Sigma (St. Louis, Mo.). PEG 400 was purchased from VWR (by EMD Chemicals). Triton WR1339 was diluted in warm saline (˜37° C.) with frequent vortexing. Compound A was dissolved in. PEG 400, and then diluted with distilled water to make a 20% PEG drug solution. FFA and TGs were measured using commercial kits from Wako Chemicals, (Richmond, Va.). Glucose and Insulin were measured using commercial kits from Thermo Electron Corporation (Waltham, Mass.) and Crystal Chem (Downers Grove, Ill.), respectively.
All data are reported as mean±SEM. Statistical analysis of data from experiments with 2 treatment groups was performed using the unpaired Student's t-test. One way analysis of variance (ANOVA) followed by Newman-Keuls posthoc analysis was used for multiple comparisons. Data form OGTT was analyzed by calculating area under the curve (AUC) using prism graphpad software. Differences between/among treatment groups were considered to be significant when the probability of their occurrence by chance alone was <0.05.

[3] = test system: awake rats; assay: Anti-lipolytic effect: serum free fatty acids (FFA) in overnight-fasted awake rats
Experimental: All experimental procedures were performed under a protocol approved by the Institutional Animal Care and Use Committee of CV Therapeutics, Inc., and in accordance with the recommendations set forth in the Guide for the Care and Use of Laboratory Animals published by the National Research Council. Male Sprague-Dawley rats (225-250 gm) with either one or two indwelling catheters (carotid and jugular) were purchased from Charles River Laboratories (Wilmington, Mass.). Animals were housed 1 per cage in a room maintained on a 12 h light/dark cycle (light on 06.00-18.00 h) under constant temperature (22-25° C.) and with ad libitum access to food and water. The anti-lipolytic effects of Compound A were studied in awake rats. Animals were fasted overnight before experimental use. On the day of the experiment, animals were put in metabolic cages and left undisturbed to acclimate to the environment for 1-2 hrs. An infusion set (21 G×¾″, 0.8×19 mm U.T.W., 3½″, 9 cm tubing, volume 0.15 ml) was connected to the arterial catheter for blood sampling. A 1% sodium citrate saline solution was used to flush the lines. A pre-treatment blood sample was obtained from each animal to determine baseline values for FFA and TG. Compound A was given via oral gavage, sc injection, iv injection, or iv infusion, as described, for each different series of experiments. Blood samples were collected into serum separator tubes (Becton Dickinson, Franklin Lakes, N.J.) at pre-determined times, Blood was allowed to clot, and then centrifuged at 8000 rpm for 4 min at 4° C. The serum was stored at −80° C. and was thawed at 4° C. for determinations of FFA and TG contents. […] Sodium citrate and Triton WR1339 were purchased from Sigma (St. Louis, Mo.). Nicotinic acid and PEG 400 were purchased from VWR (by EMD Chemicals). Triton WR 1339 was diluted in warm saline (˜37° C.) with frequent vortexing. […] Compound A was dissolved in PEG 400, and then diluted with distilled water to make a 20% PEG drug solution. Serum FFA and TGs were measured using commercial kits from Wako Chemicals, Richmond, Va. Glucose and Insulin were measured using commercial kits from Wako Chemicals USA (Richmond, Va.). All data are reported as mean±SEM. Statistical analysis of data from experiments with 2 treatment groups was performed using the unpaired Student's t-test. Two way analysis of variance followed by Bonferroni's test was used for multiple comparisons.

SMILES: O[C@@H]1[C@H](O)[C@@H](CSc2ccccc2F)O[C@H]1n1cnc2c(N[C@@H]3CCC[C@H]3O)ncnc21 [Compound A, 2-{6-[((1R,2R)-2-hydroxycyclopentyl)amino]purin-9-yl}(4S,5S,2R,3R)-5-[(2-fluorophenylthio)methyl]oxolane-3,4-diol]
- total glucose response area in OGTT [1]: no differences
- total insulin response area (AUC) in OGTT [1]: significantly (p<0.05) decreased; also recorded: no different than the insulin response of chow-fed rats given vehicle
- decrease in FFA concentration from 0 to 30 min ([2]; Chow rats): 0.24 ± 0.07 mM
- decrease in TG concentration from 0 to 30 min ([2]; Chow rats): 17 ± 3 mg/dL
- decrease in insulin concentration from 0 to 30 min ([2]; Chow rats): 0.8 ± 0.32 ng/mL
- decrease in FFA concentration from 0 to 30 min ([2]; HF rats): 0.65 ± 0.1 mM
- decrease in TG concentration from 0 to 30 min ([2]; HF rats): 46 ± 15 mg/dL
- decrease in insulin concentration from 0 to 30 min ([2]; HF rats): 2.37 ± 0.85 ng/mL
- maximal decrease in FFA levels ([3]; 1 mg/kg iv bolus): 54±5%
- FFA level after treatment ([3]; 1 mg/kg iv bolus, from 0.79±0.04 mM, p<0.001): 0.36 ± 0.05 mM
- FFA level after first iv injection ([3]; 1 mg/kg iv, first of three repeated injections, baseline 0.88±0.02 mM): 0.35 ± 0.04 mM
- FFA level after second iv injection ([3]; 1 mg/kg iv, second of three repeated injections, baseline 0.88±0.02 mM): 0.35 ± 0.03 mM
- FFA level after third iv injection ([3]; 1 mg/kg iv, third of three repeated injections, baseline 0.88±0.02 mM): 0.38 ± 0.03 mM
- decrease in FFA below baseline ([3]; 2.5 mg/kg oral gavage): 31%
- FFA level after treatment ([3]; 2.5 mg/kg oral gavage, from baseline 0.7±0.05 mM, p<0.05): 0.5 ± 0.03 mM
- decrease in FFA levels ([3]; 5 mg/kg oral gavage): 47%
- FFA level after treatment ([3]; 5 mg/kg oral gavage, from 0.8±0.04 mM, p<0.01): 0.4 ± 0.03 mM
- decrease in FFA levels ([3]; 10 mg/kg oral gavage): 57%
- FFA level after treatment ([3]; 10 mg/kg oral gavage, from 0.68±0.04 mM, p<0.001): 0.29 ± 0.02 mM
- duration of the effect to suppress lipolysis ([3]; 2.5, 5, 10 mg/kg oral gavage): dose-dependent
- lowering of FFA levels, dose dependence ([3]; 2.5, 5, 10 mg/kg oral gavage): dose-dependent manner
- rebound increase of FFA levels ([3]; after iv bolus): not observed
- acute tachyphylaxis of the FFA lowering effect ([3]; three repeated iv injections, 1 mg/kg): did not undergo acute tachyphylaxis
